Measurements as given in patent US12358892B2, “Metalloenzyme inhibitors for treating cancers, Alzheimer's disease, hemochromatosis, and other disorders” (Miralogx LLC, priority 2020, dated 2025).

Experiments:
T cells = experiment: BioMAP proliferation readout, T cells; format: cell-based, human; settings: 100 μM, 33 μM
Excerpt: (§1) The X-axis lists the quantitative protein-based biomarker readouts measured in each system. The Y-axis represents a log-transformed ratio of the biomarker readouts for the drug-treated sample (n=1) over vehicle controls (n≥6). The grey region around the Y-axis represents the 95% significance envelope generated from historical vehicle controls. Biomarker activities are annotated when two or more consecutive concentrations change in the same direction relative to vehicle controls, are outside of the significance envelope, and have at least one concentration with an effect size >20% (|log 10 ratio|>0.1). Biomarker key activities are described as modulated if these activities increase in some systems, but decrease in others. […] As summarized in Table 2 below, the compound was active with 35 annotated readouts. […]
(§2) Human primary cells in BioMAP® systems are used at early passage (passage 4 or earlier) to minimize adaptation to cell culture conditions and preserve physiological signaling responses. […] Test agents prepared in either DMSO (small molecules; final concentration ≤0.1%) or PBS (biologics) are added at the indicated concentrations 1-hr before stimulation, and remain in culture for 24-hrs or as otherwise indicated (48-hrs, MyoF system; 72-hrs, BT system (soluble readouts); 168-hrs, BT system (secreted IgG)). […]

fibroblasts = experiment: BioMAP proliferation readout, fibroblasts; format: cell-based, human; settings: 100 μM
Excerpt: as §1, §2

With `C1=NC(c2cncc(C3CCC=N3)c2)CC1` (centres unmarked) [3,5-bis(3,4-dihydro-2H-pyrrol-2-yl)pyridine] the “antiproliferative effect on T cells” value (T cells) was “antiproliferative” and the “antiproliferative effect on fibroblasts” value (fibroblasts) was “antiproliferative”.
